Laboratory results from PMC4492750, “The discovery of a selective and potent A2a agonist with extended lung retention” (Pharmacology Research & Perspectives, 2015).
Where “and” joins values, the source holds several entries; their conditions need not be identical. Identical values can stand only once. Entries after “also recorded” stand apart in the source; their conditions may differ. Like-named read-outs stand apart in the source and are kept apart here.

How the values were obtained:
[1] = test system: LPS-induced TNFα production in human PBMC; test: LPS-induced TNFα production in primary human PBMC (hTNFα PBMC); type: cell-based
Protocol: (§1) • Human A2a and A2b receptor pharmacology: Chinese hamster ovary CHO-K1 cells stably expressing human A2a and A2b receptors were used to determine substances agonistic potency and intrinsic activity. […] The signal corresponding to adenosine at 100 μmol/L was used to define 100% intrinsic activity. • Human A3 receptor pharmacology: A3 receptor Gi coupling was measured by GTPγ ^35[S] filter assay at serial dilutions of compound using membranes from Perkin-Elmer. The signal corresponding to the maximal response of NECA at 100 μmol/L was set to 100% intrinsic activity. • Lipopolysaccharide (LPS)-induced TNFα production in primary human peripheral blood mononuclear cells (hTNFα PBMC) and rat mononuclears (rTNFα splenocytes): Human PBMC and rat mononuclear spleen cells were incubated with serial dilutions of compound and stimulated with LPS.
Procedures and assays were run in R10 buffer (RPMI 1640 Medium supplemented with GlutaMAX™ and HEPES (GIBCO-BRL), 10% fetal calf serum, penicillin and streptomycin (each 5000IU/ml)). Human PBMC were purified from heparinised blood by Ficoll separation (Ficoll, Amersham Pharmacia Biotech AB, Cat: 17-1440-03, Lot: 312170) and rat mononuclear cells were collected after rat spleen perfusion. Both cell preparations were followed by hypotonic lysis of residual erythrocytes. Serial dilutions of compounds were pre-incubated with 200 000 cells/well (96-well plate) for 45min in 37 °C (190µl). Cells were stimulated by 10µl LPS (final concentration 0.5ng/ml human and 150ng/ml rat; SIGMA Cat: L-4516, Lot: 104K4036) for 18h at 37 °C. TNFα release was measured by ELISA (^TmR&D Systems plates) according to the manufacturer’s instructions in cell free supernatant.

[2] = test system: mean arterial blood pressure and heart rate; test: Swivel study: four-step i.v. infusion in conscious rats, PK-PD of MAP and HR; type: in vivo, rat; design: Emax,MAP (maximum compound 2-induced decrease in MAP) / Emax,HR (maximum compound 2-induced increase in HR): unit not given here; settings: for EC50: rat plasma concentration
Protocol: The relationship between plasma concentrations of compound 2 and mean arterial pressure (MAP) and HR, respectively, were modeled using data generated in the swivel study, including data from start of first infusion up to 2 h after end of last infusion (Dose 1–4, equivalent to 1.9, 11, 67 and 410 μg/kg per min for 15 min at each step). The baseline value, calculated as average of measurements during the 60 min baseline recording period was used as the predose value. Temporal differences between effect measurements and blood sampling for plasma analysis were accounted for by fitting a standard two-compartment PK model to the time-concentration profile for each individual animal, and subsequently using the individual parameter estimates to simulate compound 2 plasma concentrations at the times of effect measurements. Phoenix® WinNonlin® Version 6.2.1 (Certara, L.P., Princetown, NJ) was used for modelling.
A 4-step intravenous infusion protocol was performed during continuous recording of the arterial blood pressure signal and intermittent blood sampling in seven conscious rats the day after surgical implantation of an arterial line in the abdominal aorta via the caudal artery and a venous line in the jugular vein. After a baseline recording of 60 minutes, compound 2 was given in 15-minute constant infusion steps of 1.9, 11, 67 and 410μg/kg/min (0.034-0.2ml/kg/min) followed by a washout period of 120 minutes. One rat was monitored under the same conditions as a time-matched control. Blood samples for analysis of drug exposure were taken at the end of each dose step and intermittently during the washout.

[3] = test system: heart; test: Investigative rat toxicology study (heart histopathology); type: in vivo
Protocol: Rats were intratracheally administrated with compound 2 at 150µg/kg and terminated 24 hours after dosing. Rats in the repeated dose groups received compound 2 at dose level of 1 or 30µg/kg for 4 consecutive days and were terminated 24 hours after the last dose.
The animals were sacrificed by exsanguinations from the common carotid artery under isoflurane anesthesia. The external features were inspected and body weights recorded. The lung together with lower part of the trachea was excised from the thoracic cavity, weighed, and inflated with Formalin via the trachea. Other core organs (heart, kidneys, liver and spleen) were also macroscopically examined, weighed and fixed in buffered Formalin. The collected organs were trimmed and processed to paraffin blocks, sectioned (4µm) and stained with Hematoxylin Eosin (HE) for microscopic examination. Additional heart sections from each animal were collected for immunohistochemistry of Troponin T (see below) and for Masson's Trichrome stain.
The IHC was performed by using Ventanan Discovery XT automated slide processing system, according to the manufacturer’s instructions. In brief, after the antigen retrieval process (Std CC1), the Troponin T antibody (Thermo Scientific, MS-295-P1 diluted 1:50 in Antibody Diluent) was applied on the sections for 60 minutes, followed by incubation with rabbit monoclonal anti-mouse (Epitomics catalog no 3021-1) for 60 minutes and a polymer OmniMap-anti-rabbit HRP Multimer for 16 minutes. The reaction was visualized by using ChromoMap DAB kit. The slides were dehydrated in rising concentration of ethanol, cleared in xylene in an Automatic slide strainer (Sakura, US) and mounted manually with Mountex (00842, Histolab Products AB, Sweden).

[4] = biological target: A2a (Homo sapiens, UniProt P29274); test: Human A2a receptor pharmacology: cAMP Alphascreen in CHO-K1 cells; type: cell-based; design: expressed in transfected cells; host or cells: CHO-K1
A2a, sequence (P29274 whole entry): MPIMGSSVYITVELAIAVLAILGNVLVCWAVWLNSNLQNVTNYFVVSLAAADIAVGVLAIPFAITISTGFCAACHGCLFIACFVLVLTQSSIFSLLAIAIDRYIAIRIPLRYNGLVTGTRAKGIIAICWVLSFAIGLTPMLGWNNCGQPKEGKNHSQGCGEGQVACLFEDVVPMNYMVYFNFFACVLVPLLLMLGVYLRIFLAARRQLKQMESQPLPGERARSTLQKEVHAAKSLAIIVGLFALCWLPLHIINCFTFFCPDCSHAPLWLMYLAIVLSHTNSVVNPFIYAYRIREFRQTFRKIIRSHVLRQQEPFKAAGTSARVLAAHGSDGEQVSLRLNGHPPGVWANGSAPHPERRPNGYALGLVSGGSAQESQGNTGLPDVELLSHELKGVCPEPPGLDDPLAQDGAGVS
Protocol: as §1
Chinese hamster ovary CHO-K1 cells stably expressing human A2a and A2b receptors were stored as 1ml aliquots at -150 °C in freezing medium, thawed immediately prior to assay. […] Cells (10000 cells/well) were incubated with test compounds prepared as serial dilutions. Potency (EC50) and efficacy (% of maximal response) were calculated from data fitted to a 4-parameter logistic function. The signal of 10µM NECA represented the maximal cAMP response (i.e. 100% of efficacy) produced by these cells.

[5] = calculated from PK-PD relationships
[6] = conscious rats, 2 h after end of four-step i.v. infusion

CCNC(=O)[C@H]1O[C@@H](n2cnc3c(NC(CC)CC)nc(NCCNC(=O)Nc4cc[n+](C)cc4)nc32)[C@H](O)[C@@H]1O [Compound 2, (2S,3S,4R,5R)-N-ethyl-5-[6-(1-ethylpropylamino)-2-[2-[(1-methylpyridin-1-ium-4-yl)carbamoylamino]ethylamino]purin-9-yl]-3,4-dihydroxy-tetrahydrofuran-2-carboxamide]
EC50 ([1]; Homo sapiens, PBMC, read-out: EC50, inhibition of LPS stimulated TNFα release in human PBMC): 0.5 nM
IC50 ([1]; LPS-stimulated TNFα release, human PBMC, average (SD)): 0.5 nM
Emax ([1]; LPS-stimulated TNFα release, human PBMC, average (SD), read-out: Human TNFα PBMC Intrinsic activity): 72.4%
Concentration for 10% MAP decrease relative to plasma concentration at effective dose (fold lower) ([2]; 0.3 nmol/L vs 2-4 nmol/L at 10 μg/kg i.t.): 10 fold
kE0 (first-order rate constant, effect compartment) ([2]; PK-PD model of MAP, mean ± SD): 0.058 ± 0.039 min⁻¹
EC50 ([2]; Rattus norvegicus, iv, sigmoid Emax model, mean ± SD, read-out: EC50,MAP (plasma concentration that induces half the maximum MAP decrease)): 0.5 nM
EC50 ([2]; Rattus norvegicus, iv, simple Emax model on mean data, read-out: EC50,HR): 0.18 nM
Plasma concentration that produces 10% increase from baseline HR [2, 5]: 0.04 nM
Total plasma concentration that causes 10% decrease from baseline MAP [2, 5]: 0.3 ± 0.2 nmol/L and 0.3 nmol/L
Blood pressure 2 h postdosing [2, 6]: 100 ± 7 mmHg
Heart rate 2 h postdosing [2, 6]: 489 ± 41 bpm
Heart rate at dose 2 ([2]; conscious rats, i.v. infusion 11 μg/kg per min for 15 min, baseline 381 ± 21): 472 ± 33 bpm
Blood pressure at dose 3 ([2]; conscious rats, i.v. infusion 67 μg/kg per min for 15 min, baseline 114 ± 9): 98 ± 9 mmHg
Core body temperature ([2]; highest dose (410 μg/kg per min i.v.)): significant reduction
EC50 ([2]; sigmoid Emax model, mean ± SD, read-out: EC50,MAP (plasma concentration that induces half the maximum MAP decrease)): 0.52 ± 0.16 nM
Emax,MAP (maximum compound 2-induced decrease in MAP) ([2]; sigmoid Emax model, mean ± SD): 37 ± 11
Emax,HR (maximum compound 2-induced increase in HR) ([2]; simple Emax model on mean data): 158
Heart changes ([3]; 1 μg/kg i.t. for 4 days): No changes were observed
Multifocal scar tissue (dense granulation) in heart ([3]; 30 μg/kg i.t. for 4 days): three out of five; also recorded: multifocal dense scar tissue in the heart but no acute myocardial necrosis
Dose level with histopathological heart lesions relative to efficacious dose in inflammatory rat lung model ([3]; 30 μg/kg vs 10 μg/kg i.t.): threefold
Heart weight relative to body weight ([3]; single dose of 150 μg/kg or repeated doses of 30 μg/kg): slightly increased
Multifocal myocardial necrosis ([3]; single i.t. dose 150 μg/kg, one day after dose): four of five; also recorded: caused multifocal myocardial necrosis
Emax ([4]; CHO-K1, 100% = 10 μmol/L NECA, average (SD), read-out: A2a human CHO-K1 cells Intrinsic activity): 97.9%
EC50 ([4]; cAMP generation, average (SD)): 1.4 nM
Selectivity for A2a over A1, A2b and A3 ([4]; human adenosine receptors): > 1000 fold
